Common to all, as to assay type: in vivo, rat
Experiment [1] relates to STZ diabetic rats. Description: Tubulointerstitial matrix index (Masson's trichrome). As to conditions: kidney of STZ diabetic rats, 8 weeks; semi-quantified; garcinol 200 mg/kg, olmesartan 6 mg/kg, glimepiride 1 mg/kg. The procedure: (§1) Kidney sections were stained with periodic acid-Schiff's reagent and Masson's modified trichrome to assess glomerulosclerosis and collagenous tubulointerstitial matrix, respectively.
The accumulation of matrix within the tubulointerstitial was assessed on Masson's trichrome stained sections. Blue area on a trichrome-stained section was selected for its color range and the proportional area of tissue with this range of color was then semi-quantified as tubulointerstitial matrix index (TIMI).

Experiment [2] concerns glucose transporter 2 (GLUT2). The experiment in a line: GLUT-2 protein expression in liver of diabetic rats (Western blot). The conditions noted are these: 8 weeks treatment, FIG. 3. The procedure: (§2) For determination of glucose transporter 2 (GLUT2) protein expressions in liver and glucose transporter 4 (GLUT4) protein expressions in skeletal muscle; each sample prepared was mixed with 1% sodium dodecyl sulfate and 50 mM dithiothreitol, and the mixture was subjected to electrophoresis with 10% polyacrylamide gel. The separated proteins on the gel were electrotransferred to a polyvinylidene difluoride membrane. After blocking with 5% skim milk solution including 0.05% Poly (Oxyethylene) sorbitan monolaurate (Tween 20) overnight at 4° C., the membrane was reacted with anti-GLUT-2 antibody (Abcam, UK) & anti-GLUT-4 antibody (Abcam, UK) for 2 h. Subsequently, it was incubated with horseradish peroxidase conjugated IgG (diluted 1:2000) [Jackson immunoresearch laboratories, USA] for 2 h at room temperature (Western Blot). Reduced qualitative expression of GLUT2 and GLUT 4 in liver and muscle respectively of diabetic rats were improved with the garcinol treatment (FIG. 3), which were better than observed with olmesartan.
Background: Immunoblotting shows a protein as a band on a membrane.

Experiment [3] concerns STZ diabetic rats. Description: Kidney histopathology, glomerulosclerotic index (periodic acid-Schiff). The conditions noted are these: kidney of STZ diabetic rats, 8 weeks; sclerosis graded 0 to 4; garcinol 200 mg/kg, olmesartan 6 mg/kg, glimepiride 1 mg/kg.
Description: as §1
In 4 μm kidney sections stained with periodic acid-Schiff's reagent, 150 glomeruli from each animal were examined. The extent of sclerosis in each glomerulus was subjectively graded on a scale of 0 to 4, with the following grades: grade 0 normal, grade 1 sclerotic area <25% (minimal), grade 2 sclerotic area 25-50% (moderate), grade 3 sclerotic area 50-75% (moderate to severe) and grade 4 sclerotic area 75-100% (severe). A glomerulosclerotic index was then calculated using the formula: […]
Where GSI is glomerulosclerotic index, Fi is the % of glomeruli in the rat with a given score (i).

For experiment [4], the system named is glucose transporter 4 (GLUT4). The experiment in a line: GLUT-4 protein expression in soleus muscle of diabetic rats (Western blot). The conditions noted are these: 8 weeks treatment, FIG. 3. As to the method:
as §2

Experiment [5] relates to STZ diabetic rats. The experiment in a line: DNA fragmentation assay (TUNEL) for apoptosis in kidney. The procedure: For detection and localization of apoptosis in kidney, the technique of terminal deoxynucleotidyl transferase-mediated dUTP nick end labeling (TUNEL) (Apo-BrdU-IHC™ In Situ DNA Fragmentation Assay Kit, Biovison, USA) were employed. Briefly, sections were deparaffinized, hydrated, and digested with proteinase K (20 μg/ml), and then added biotinylated dUTP to the 3′ end of DNA fragments by incubating sections in 0.05 mol/l Tris-HCl buffer (pH 7.6) with 0.03 U/μl TdT and 0.04 nmol/μl biotin-11-dUTP at 37° C. for 1 h. The sections were rinsed in PBS. Endogenous peroxidase was blocked with 0.3% H2O2 in distilled H2O. The sections were rinsed with PBS and covers with 2% blocking solution in 0.1 mol/l sodium maleate to reduce background staining. The sections were then incubated with avidin-peroxidase complexes in PBS (1:50) for 30 min and rinsed with PBS (3×5 min). Peroxidase activity was visualized with 3,3′-diaminobenzidine until the brown product was clearly visible. The sections were then counterstained with methyl green. The positive apoptotic cells were the cells with brown nucleus 2.10.

The test system of experiment [6] is STZ diabetic rats. The experiment in a line: Renal function and biochemical parameters in plasma/serum of STZ diabetic rats. The conditions noted are these: 8 weeks, garcinol 200 mg/kg, olmesartan 6 mg/kg, glimepiride 1 mg/kg. The procedure:
The Garcinol used for the experimental studies was bought from Sami Labs, Hyderabad. It was administered at the dose of 200 mg/kg dispersed in water with 1% CMC. Further, the experimental procedures were conducted according to the Institutional Animal Ethical Committee (protocol no. DIPSAR/IAEC/2009/01) and CPCSEA guidelines. All rats were housed under conventional conditions with controlled temperature, humidity and light (12 hours light-dark cycle), and were provided with a standard commercial diet and water (ad libitum). Healthy albino rats of Wistar strain were kept for breeding. Diabetes was induced by administration of streptozotocin (STZ, 90 mg/kg, i.p.) to a group of 2 day old pups. Age-matched control rats were given an equal volume of vehicle and considered as ‘Normal’ group of rats. Six weeks after injection, the blood glucose level was measured from the tail vein. Rats with a fasting blood glucose level over 160 mg/dl were considered as diabetic.
After 6 weeks, four groups of animals, each comprising of 8 animals were made. The groups were assigned to receive vehicle or garcinol (200 mg/kg dispersed in 1% CMC); Olmesartan (6 mg/kg/day) and Glimepiride (1 mg/kg/day) once daily for 8 weeks. After the final drug administration, body weight was measured and blood samples were collected in both fasting and post prandial conditions. The kidney of treated and untreated animals were isolated and fixed in 10% buffered formalin solution to prepare paraffin sections.
Biochemical estimation for glucose, insulin, albumin and total proteins; glomerular proteins (viz β-2 microglobulin, serum cystatin c and serum creatinine) for the determination of GFR; inflammatory cytokines and growth factors like Tumor necrosis factor (TNF-α), Nitric Oxide (NO), Transforming growth factor (TGF-β1) and Vascular endothelial growth factor (VEGF) and kidney specific molecular markers involving adiponectin and erythropoietin were made in plasma/serum.

For the molecule `CCC1=C(C)CN(C(=O)NCCc2ccc(S(=O)(=O)NC(=O)N[C@H]3CC[C@H](C)CC3)cc2)C1=O` [Glimepiride, glimepiride], the “TIMI (tubulointerstitial matrix index)” value in the experiment with STZ diabetic rats [1] is listed as 2. In experiment [2], the “Qualitative expression of GLUT2 in liver” value is on record as “did not show any improvement”. Further, the “GSI (glomerulosclerotic index)” value in the experiment with STZ diabetic rats [3] is 2.8. In experiment [4], the “Qualitative expression of GLUT 4 in muscle” value is reported as “did not show any improvement”. For the same molecule, the Apoptosis in the experiment on STZ diabetic rats [5] (kidney of STZ diabetic rats, 8 weeks, garcinol 200 mg/kg, olmesartan 6 mg/kg, glimepiride 1 mg/kg) turned out to be 90 % FA. In the experiment on STZ diabetic rats [5] (kidney of diabetic rats, FIG. 4), the “DNA fragmentation / apoptosis in kidney (qualitative)” value is on record as “no change in the decrease in apoptosis”. In the experiment on STZ diabetic rats [6], the Adiponectin was determined as 2.277 ± 0.86 µg/mL, the “Beta-2 microglobulin (GFR)” value worked out at 1.42 ± 0.21 µg/mL, the Erythropoietin was 0.5141 ± 0.13 mlU/ml and the “Nitric Oxide” value stood at 0.33 ± 0.064 nmol/µL. Besides, in the experiment on STZ diabetic rats [6], the “Plasma Insulin” value was 14.38 ± 1.29 ng/mL, the “Serum Creatinine (GFR)” value worked out at 1.873 ± 0.56 mg/dL, the “Serum CystatinC (GFR)” value was 0.2933 ± 0.033 ng/mL and the TGF-β came out at 8.316 ± 2.06 pg/mL. For the same molecule, in the experiment with STZ diabetic rats [6], the TNF-α came to 0.08563 ± 0.0167 pg/mL, the “Total Proteins” value came out at 1.956 ± 0.09 mg/mL and the VEGF stood at 61.29 ± 2.54 pg/mL.

(Values after patent US9872840B2, “Effect of garcinol in delaying the progression of diabetic nephropathy” (Delhi Institute of Pharmaceutical Sciences and Research, priority 2013, dated 2018).)
